Residues, ends and D or L forms follow the SMILES beside them.
Tests used:
E. coli (ATCC 8739) = test: Antimicrobial susceptibility assay (MIC/MBC); format: cell-based, Escherichia coli; details: for MIC: MHB, 37 °C, 20 h
Description: (§1) Six bacteria were tested in this experiment to detect the antimicrobial effects of crabrolin and its derivatives, including S. aureus (NCTC 10788), MRSA (NCTC 12493), E. coli (ATCC 8739), K. pneumoniae (ATCC 43816), E. faecium (NTCC-12697), and P. aeruginosa (ATCC 9027). The tested bacteria were cultured in Mueller Hinton broth medium (MHB) with norfloxacin (20 mg/L) as a positive control. All bacteria were incubated at 37 °C overnight and diluted to 5 × 10^5 CFU/mL before treating with the peptides. Stock solutions of 51,200 µM peptides were prepared in phosphate-buffered saline (PBS) and further diluted by a factor of two to 100 µM. Next, 1 µL of each peptide solution was mixed with 99 µL of bacterial subculture in a 96-well plate, and the plate was incubated at 37 °C for 20 h. After culturing, the absorbance of each well in the 96-well plate was analyzed at 550 nm using a Synergy HT plate reader (BioliseBioTek, Winooski, VT, USA). […] Starting with the MIC value, 10 µL of the solution from each well was dripped onto Mueller Hinton agar (MHA) plates. The plates were cultured at 37 °C for 20 h. After culturing, the lowest concentration with no colony growth was regarded as the MBC.

horse erythrocytes = test: Hemolysis assay; format: cell-based
Description: (§2) According to the procedures described in detail in a previous study, the debris and impurities of the erythrocytes were washed with PBS in advance to yield 2% of the erythrocyte suspension, and the drug concentration was diluted from 1024 µM to 2 µM with PBS [53]. The same amounts of the drug and the erythrocyte suspension were mixed and cultured at 37 °C for 2 h; 0.1% Triton X-100 (Sigma-Aldrich, St. Louis, MO, USA) was prepared as a positive control, and PBS was prepared as a negative control. After the incubation, the supernatant was transferred to a 96-well plate and then detected using a Synergy HT plate reader at 570 nm.

Hemolysis assay = format: cell-based, horse; details: horse, erythrocytes (2% suspension); at the peptide's maximum MIC; relative to Triton X-100; read-out: Hemolysis under the Maximum MIC
Description: as §2

S. aureus (NCTC 10788) = test: Antimicrobial susceptibility assay (MIC/MBC); format: cell-based, Staphylococcus aureus; details: for MIC: MHB, 37 °C, 20 h
Description: as §1

[1] = test system: K. pneumoniae (ATCC 43816); test: Antimicrobial susceptibility assay (MIC/MBC); format: cell-based, Klebsiella pneumoniae; details: for MIC: MHB, 37 °C, 20 h
Description: as §1

[2] = test system: P. aeruginosa (ATCC 9027) biofilm; format: cell-based, Pseudomonas aeruginosa; details: for MBIC: biofilm inhibitory rate more than 90%; for MBEC: eradication rate greater than 99.9%
Description: (§3) To measure the antibiofilm activity of crabrolin and its derivatives, four drug-resistant biofilm-forming strains, MRSA (NCTC 12493), K. pneumoniae (ATCC 43816), E. faecium (NTCC-12697), and P. aeruginosa (ATCC 9027), were used in this assay. Tryptic soy broth (TSB) (for the Gram-positive bacteria) and Luria–Bertani broth (LB) (for the Gram-negative bacteria) were used to culture the bacteria.
(§4) The mass of the biofilm in this assay was detected by the crystal violet staining method. First, 100 μL of 5 × 10^5 CFU/mL bacteria was incubated with 1 μL of different peptide solutions (ranging from 51200 μM to 100 μM) for 24 h at 37 °C with 200 rpm shaking. After the biofilm formation, 100 μL of PBS was used to rinse the biofilm twice. Next, 100 µL of methanol was added to fix the biofilm, and the biofilm was then dried. Thereafter, 100 μL of 0.1% crystal violet was added and left to stain for 15 min, and then the excess crystal violet was further rinsed by PBS. After the plate had air-dried, 30% glacial acetic acid was added to each well of the plate, and the plate was shaken for 15 min before the optical density (OD) value was measured at 595 nm using a Synergy HT plate reader. The MBIC value refers to the minimum concentration at which the biofilm inhibitory rate was more than 90%.
(§5) Different from measuring the MBIC value, to determine the MBEC value, 100 μL of the bacteria was first added to 96-well plates. After the biofilm was formed, the biofilm was rinsed with PBS twice to remove the planktonic cells, and then different concentrations of the drugs were added to the biofilm (the same as the MBIC assay). The mixture was incubated at 37 °C with shaking at 200 rpm. After 24 h of incubation, the mass of the biofilm was measured in the same way as the MBIC value, and the minimum concentration at which the eradication rate was greater than 99.9% was considered to be the MBEC value.

[3] = test system: P. aeruginosa (ATCC 9027); test: Antimicrobial susceptibility assay (MIC/MBC); format: cell-based, Pseudomonas aeruginosa; details: for MIC: MHB, 37 °C, 20 h
Description: as §1

[4] = test system: human non-small-cell lung cancer line H838; test: Anti-proliferative assay (MTT); format: cell-based; details: 24 h
Description: (§6) The human non-small-cell lung cancer line, H838, the human prostate carcinoma cell line, PC-3, the human glioblastoma astrocytoma, U251MG, the human breast cancer cell line, MCF-7, the human colorectal carcinoma cell line, HCT116, and the human keratinocyte cell line, HaCaT, were used to detect the anti-proliferative effects of the crabrolin and its derivatives in vitro. A total of 8000 cells were seeded in each well of a 96-well plate. After the cells had adhered to the wall, the cells were starved for 4 h. After the starvation, the cells were incubated with different concentrations of the drugs, ranging from 100 µM to 1 nM, for 24 h, with 0.1% Triton X-100 used as a positive control. Next, 10 µL of MTT (3-(4,5-dimethylthiazol-2-yl)-2,5-diphenyltetrazolium bromide) solution (5 mg/mL) was added to each well of the 96-well plate. After 2 h of incubation, 100 μL of DMSO-superseded medium was added to each well to dissolve the formazan crystals. Finally, the absorbance was detected using a Synergy HT plate reader at 570 nm.

[5] = test system: human colorectal carcinoma cell line HCT-116; test: Anti-proliferative assay (MTT); format: cell-based; details: HCT-116, MTT, 24 h
Description: as §6

[6] = test system: human prostate carcinoma cell line PC-3; test: Anti-proliferative assay (MTT); format: cell-based; details: PC3, MTT, 24 h
Description: as §6

[7] = test system: human glioblastoma astrocytoma U251MG; test: Anti-proliferative assay (MTT); format: cell-based; details: 24 h
Description: as §6

[8] = test system: human keratinocyte cell line HaCaT; test: Anti-proliferative assay (MTT); format: cell-based; details: HaCaT (normal keratinocytes), 24 h
Description: as §6

[9] = test system: human breast cancer cell line MCF-7; test: Anti-proliferative assay (MTT); format: cell-based; details: MCF-7, MTT, 24 h
Description: as §6

[10] = test system: K. pneumoniae (ATCC 43816) biofilm; format: cell-based, Klebsiella pneumoniae; details: for MBIC: biofilm inhibitory rate more than 90%; for MBEC: eradication rate greater than 99.9%
Description: as §3, §4, §5

[11] = test system: E. faecium (NTCC12697) biofilm; format: cell-based, Enterococcus faecium; details: for MBIC: biofilm inhibitory rate more than 90%; for MBEC: eradication rate greater than 99.9%
Description: as §3, §4, §5

[12] = test system: MRSA (NCTC 12493) biofilm; format: cell-based, methicillin-resistant Staphylococcus aureus; details: for MBIC: biofilm inhibitory rate more than 90%; for MBEC: eradication rate greater than 99.9%
Description: as §3, §4, §5

E. faecium (NTCC 12697) = test: Antimicrobial susceptibility assay (MIC/MBC); format: cell-based, Enterococcus faecium; details: for MIC: MHB, 37 °C, 20 h
Description: as §1

MRSA (NCTC 12493) = test: Antimicrobial susceptibility assay (MIC/MBC); format: cell-based, methicillin-resistant Staphylococcus aureus; details: for MIC: MHB, 37 °C, 20 h
Description: as §1

Structure (SMILES)	MBC (E. coli (ATCC 8739))	MIC (E. coli (ATCC 8739))	HC10 (10% hemolytic concentration) (horse erythrocytes; erythrocytes, 37 °C, 2 h)	hemolysis at 2 h (Hemolysis assay)	MBC (S. aureus (NCTC 10788))	MIC (S. aureus (NCTC 10788))	MBC [1]	MIC [1]	MBIC [2]	MBEC [2]	MBC [3]	MIC [3]	IC50 [4]	IC50 [5]	IC50 [6]	IC50 [7]	IC50 [8]	IC50 [9]	MBIC [10]	MBEC [10]	other results
CC[C@H](C)[C@H](NC(=O)[C@H](CCCNC(=N)N)NC(=O)[C@H](CCCNC(=N)N)NC(=O)[C@H](CC(C)C)NC(=O)[C@@H](N)CCCNC(=N)N)C(=O)N[C@@H](CC(C)C)C(=O)N[C@@H](CCCNC(=N)N)C(=O)N[C@@H](CCCCN)C(=O)N[C@H](C(=O)N[C@H](C(=O)N[C@@H](CCCNC(=N)N)C(=O)N[C@@H](CCCNC(=N)N)C(=O)N[C@@H](CC(C)C)C(N)=O)C(C)C)[C@@H](C)CC [Crabrolin-PR, RLRRILRKIVRRL-NH2] (H-RLRRILRKIVRRL-NH2)	8 µM	2 µM	5019 µM	3.09%	4 µM	2 µM	16 µM	8 µM	8 µM	> 512 µM	16 µM	4 µM	32.3 µM	16.3 µM	22.4 µM	17.7 µM	29.5 µM	12.3 µM	8 µM	> 512 µM	Hemolytic activity at the measured maximum concentration (horse erythrocytes; maximum concentration (range 1 to 512 μM)): less than 1%; MBIC [11]: 32 µM; MBEC [11]: > 512 µM; MBIC [12]: 8 µM; MBEC [12]: 512 µM; MBC (E. faecium (NTCC 12697)): 16 µM; MIC (E. faecium (NTCC 12697)): 8 µM; MBC (MRSA (NCTC 12493)): 8 µM; MIC (MRSA (NCTC 12493)): 4 µM
CC[C@H](C)[C@H](NC(=O)[C@H](CCCNC(=N)N)NC(=O)[C@@H]1CCCN1C(=O)[C@H](CC(C)C)NC(=O)[C@@H](N)CCCNC(=N)N)C(=O)N[C@@H](CC(C)C)C(=O)N[C@@H](CCCNC(=N)N)C(=O)N[C@@H](CCCCN)C(=O)N[C@H](C(=O)N[C@H](C(=O)N[C@@H](CCCNC(=N)N)C(=O)N[C@@H](C)C(=O)N[C@@H](CC(C)C)C(N)=O)C(C)C)[C@@H](C)CC [Crabrolin-FR, RLPRILRKIVRAL-NH2] (H-RLPRILRKIVRAL-NH2)	4 µM	2 µM	18.082 µM	5.67%	2 µM	2 µM	16 µM	8 µM	8 µM	> 512 µM	16 µM	4 µM	31.5 µM	30.3 µM	15.9 µM	62.2 µM	30.4 µM	33.9 µM	8 µM	512 µM	MBIC [11]: 32 µM; MBEC [11]: > 512 µM; MBIC [12]: 8 µM; MBEC [12]: 256 µM; MBC (E. faecium (NTCC 12697)): 16 µM; MIC (E. faecium (NTCC 12697)): 8 µM; MBC (MRSA (NCTC 12493)): 4 µM; MIC (MRSA (NCTC 12493)): 4 µM
CC[C@H](C)[C@H](NC(=O)[C@H](CCCCN)NC(=O)[C@@H]1CCCN1C(=O)[C@H](CC(C)C)NC(=O)[C@@H](N)Cc1ccccc1)C(=O)N[C@@H](CC(C)C)C(=O)N[C@@H](CCCNC(=N)N)C(=O)N[C@@H](CCCCN)C(=O)N[C@H](C(=O)N[C@H](C(=O)N[C@H](C(=O)N[C@@H](C)C(=O)N[C@@H](CC(C)C)C(N)=O)[C@@H](C)O)C(C)C)[C@@H](C)CC [Crabrolin-4K, FLPKILRKIVTAL-NH2] (H-FLPKILRKIVTAL-NH2)	8 µM	4 µM	68.628 µM	10.4%	4 µM	2 µM	32 µM	16 µM	512/512 µM	512/512 µM	32 µM	16 µM	22.6 µM	42.9 µM	20.6 µM	23.5 µM	32.6 µM	23.2 µM	16 µM	256 µM	HC50 (50% hemolytic concentration) (horse erythrocytes; erythrocytes, 37 °C, 2 h): 217.816 µM; MBIC [11]: 16 µM; MBEC [11]: > 512 µM; MBIC [12]: 16 µM; MBEC [12]: 128 µM; MBC (E. faecium (NTCC 12697)): 64 µM; MIC (E. faecium (NTCC 12697)): 32 µM; MBC (MRSA (NCTC 12493)): 16 µM; MIC (MRSA (NCTC 12493)): 8 µM

Reference: article PMC10572522, “A Designed Analog of an Antimicrobial Peptide, Crabrolin, Exhibits Enhanced Anti-Proliferative and In Vivo Antimicrobial Activity” (International Journal of Molecular Sciences, 2023)
